According to publication PMC12818745 (ACS Chemical Neuroscience, 2025):

Tests used:
Aβ42 aggregation = target: T1, Aβ42 aggregation (Homo sapiens, UniProt P05067); experiment: Thioflavin S assay of Aβ42 aggregation in E. coli cells overexpressing Aβ42; assay type: cell-based, Escherichia coli; conditions: read-out: Aβ42 inhibition %
T1 construct: expressed in transfected cells; host or cells: E. coli BL21 (DE3), pET vector
Procedure: The antiaggregating profiles of both series A and B were evaluated using a fluorescence Thioflavin S (ThS) assay in cellulo, which monitors ThS fluorescence in the presence of β-sheet-rich structures, such as Aβ and tau protein aggregates. This method, based on recombinant Escherichia coli (E. coli) bacteria overexpressing insoluble aggregates, offers a simple and cost-effective approach to model aggregation processes in mammalian systems and has been validated for use in drug discovery studies. , Compounds were tested at a screening concentration of 50 μM for their ability to inhibit Aβ42 aggregation. The results, summarized in Table , reveal distinct antiaggregating profiles between series A and B, which are once again influenced by their structural differences.
42 Amino acid Aβ42 was cloned and overexpressed in E. coli BL21 (DE3) competent cells using the pET vector harboring the DNA sequence of Aβ42. Due to the addition of the initiation codon ATG preceding genes, the resulting overexpressed peptide contained an additional methionine residue at its N-terminus. For the preparation of overnight cultures, a colony of BL21 (DE3) cells carrying the plasmid for expression was inoculated in 10 mL of M9 minimal medium supplemented with 50 μg mL^–1 kanamycin at 37 °C. Subsequently, a 1:500 dilution of the overnight culture was added to fresh M9 minimal medium containing 50 μg mL^–1 kanamycin and 25 μM ThS. The bacterial culture was then incubated at 37 °C with agitation at 250 rpm. Upon reaching an OD600 of 0.6, 980 μL of the culture was transferred into 1.5 mL Eppendorf tubes, each containing 10 μL of the compound to be tested dissolved in DMSO and 10 μL of 100 mM isopropyl 1-thio-β-D-galactopyranoside (IPTG) or, alternatively, 10 μL of water for the noninduced controls. The final compound concentration was adjusted to […]. The samples were allowed to grow overnight at 37 °C with agitation at 1400 rpm using a Thermomixer (Eppendorf). Negative controls, representing maximum amyloid presence, utilized free DMSO.
ThS (T1892) and all other chemical reagents were purchased from Sigma (St. Louis, MO). Stock solutions of ThS (250 μM) were prepared using doubly distilled water purified via a Milli-Q system (Millipore). For the fluorescence assay, ThS spectra were recorded utilizing an AmincoBowman series 2 luminescence spectrophotometer (Aminco-Bowman AB2, SLM Aminco, Rochester, NY) within the range of 460 to 600 nm at a temperature of 25 °C. The excitation wavelength employed was 445 nm, with slit widths set at 4 nm. The emission at 485 nm, corresponding to the ThS peak observed in the presence of amyloids, was recorded. To standardize ThS fluorescence relative to bacterial concentration in both in vitro and cell-based assays, the OD600 was determined using a Shimadzu UV-2401 PC UV–vis spectrophotometer. Fluorescence normalization was executed by setting the ThS fluorescence of bacterial cells expressing the peptide or protein in the absence of the drug as 100%, while that of bacterial cells not expressing the peptide or protein was established as 0%.

BChE = target: T2, BChE (Equus caballus, UniProt P81908); experiment: Kinetic analysis (Lineweaver–Burk), BChE; assay type: biochemical; conditions: Lineweaver–Burk plots, substrate 50–800 μM
T2 construct: eqBChE (equine serum butyrylcholinesterase); from tissue; host or cells: equine serum
T2 sequence (P81908 whole entry): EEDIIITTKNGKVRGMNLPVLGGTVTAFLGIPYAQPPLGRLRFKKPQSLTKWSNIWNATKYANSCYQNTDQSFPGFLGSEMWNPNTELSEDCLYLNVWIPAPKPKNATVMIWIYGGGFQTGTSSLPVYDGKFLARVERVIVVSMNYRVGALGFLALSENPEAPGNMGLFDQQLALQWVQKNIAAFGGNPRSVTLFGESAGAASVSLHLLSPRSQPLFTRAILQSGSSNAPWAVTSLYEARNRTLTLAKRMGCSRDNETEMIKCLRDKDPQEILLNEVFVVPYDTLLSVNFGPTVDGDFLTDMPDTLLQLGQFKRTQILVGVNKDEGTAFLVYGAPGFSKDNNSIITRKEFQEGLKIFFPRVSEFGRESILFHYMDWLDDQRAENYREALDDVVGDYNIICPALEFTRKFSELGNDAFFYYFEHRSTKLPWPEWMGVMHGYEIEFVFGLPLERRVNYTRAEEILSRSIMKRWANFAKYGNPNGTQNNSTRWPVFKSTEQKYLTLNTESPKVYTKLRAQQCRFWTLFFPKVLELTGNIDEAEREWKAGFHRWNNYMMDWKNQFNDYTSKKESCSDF
Procedure: (§1) Based on the computational predictions, derivatives 10 (series A) and 11r (series B) were initially expected to interact with both CAS and PAS of AChE and BChE. However, to better understand the actual mechanism of action of these compounds, kinetic studies were performed (Figure ). […].
(§2) […]. The enzymatic reactions and measurements were performed using the same assay conditions, as described above for the inhibition of both enzymes. All experiments were performed in triplicate. Linear regression analysis was performed with GraphPad Prism 8.0.2 (GraphPad Software Inc.).

AChE = AChE (Electrophorus electricus, UniProt O42275); experiment: Kinetic analysis (Lineweaver–Burk), AChE; assay type: biochemical; conditions: Lineweaver–Burk plots, substrate 50–800 μM
Sequence of AChE (O42275 24-633): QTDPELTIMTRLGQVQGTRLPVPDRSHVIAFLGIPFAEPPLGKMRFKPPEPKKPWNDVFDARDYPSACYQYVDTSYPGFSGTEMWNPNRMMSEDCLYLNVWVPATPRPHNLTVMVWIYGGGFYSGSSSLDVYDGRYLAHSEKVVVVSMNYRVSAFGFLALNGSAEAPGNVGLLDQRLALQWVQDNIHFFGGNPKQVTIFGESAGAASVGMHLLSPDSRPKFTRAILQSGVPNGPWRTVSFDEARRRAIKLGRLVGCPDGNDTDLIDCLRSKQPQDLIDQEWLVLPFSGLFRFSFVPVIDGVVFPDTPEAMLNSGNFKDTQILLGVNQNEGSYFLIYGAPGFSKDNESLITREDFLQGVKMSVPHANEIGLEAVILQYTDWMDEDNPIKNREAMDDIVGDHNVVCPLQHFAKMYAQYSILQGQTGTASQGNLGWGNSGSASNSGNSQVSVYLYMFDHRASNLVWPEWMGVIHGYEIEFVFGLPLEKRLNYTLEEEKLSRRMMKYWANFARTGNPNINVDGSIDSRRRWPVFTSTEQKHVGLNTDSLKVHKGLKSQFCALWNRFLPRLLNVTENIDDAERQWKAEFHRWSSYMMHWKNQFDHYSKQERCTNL
Procedure: as §1, §2

P-glycoprotein (P-gp) = target: T3, P-glycoprotein (P-gp) (Homo sapiens, UniProt P08183); experiment: Calcein-AM-assay in hMEC/D3 cells; assay type: cell-based; conditions: 1, 10, 50 and 100 μM
T3 construct: endogenous in cells; host or cells: hMEC/D3 cells
T3 sequence (P08183 whole entry): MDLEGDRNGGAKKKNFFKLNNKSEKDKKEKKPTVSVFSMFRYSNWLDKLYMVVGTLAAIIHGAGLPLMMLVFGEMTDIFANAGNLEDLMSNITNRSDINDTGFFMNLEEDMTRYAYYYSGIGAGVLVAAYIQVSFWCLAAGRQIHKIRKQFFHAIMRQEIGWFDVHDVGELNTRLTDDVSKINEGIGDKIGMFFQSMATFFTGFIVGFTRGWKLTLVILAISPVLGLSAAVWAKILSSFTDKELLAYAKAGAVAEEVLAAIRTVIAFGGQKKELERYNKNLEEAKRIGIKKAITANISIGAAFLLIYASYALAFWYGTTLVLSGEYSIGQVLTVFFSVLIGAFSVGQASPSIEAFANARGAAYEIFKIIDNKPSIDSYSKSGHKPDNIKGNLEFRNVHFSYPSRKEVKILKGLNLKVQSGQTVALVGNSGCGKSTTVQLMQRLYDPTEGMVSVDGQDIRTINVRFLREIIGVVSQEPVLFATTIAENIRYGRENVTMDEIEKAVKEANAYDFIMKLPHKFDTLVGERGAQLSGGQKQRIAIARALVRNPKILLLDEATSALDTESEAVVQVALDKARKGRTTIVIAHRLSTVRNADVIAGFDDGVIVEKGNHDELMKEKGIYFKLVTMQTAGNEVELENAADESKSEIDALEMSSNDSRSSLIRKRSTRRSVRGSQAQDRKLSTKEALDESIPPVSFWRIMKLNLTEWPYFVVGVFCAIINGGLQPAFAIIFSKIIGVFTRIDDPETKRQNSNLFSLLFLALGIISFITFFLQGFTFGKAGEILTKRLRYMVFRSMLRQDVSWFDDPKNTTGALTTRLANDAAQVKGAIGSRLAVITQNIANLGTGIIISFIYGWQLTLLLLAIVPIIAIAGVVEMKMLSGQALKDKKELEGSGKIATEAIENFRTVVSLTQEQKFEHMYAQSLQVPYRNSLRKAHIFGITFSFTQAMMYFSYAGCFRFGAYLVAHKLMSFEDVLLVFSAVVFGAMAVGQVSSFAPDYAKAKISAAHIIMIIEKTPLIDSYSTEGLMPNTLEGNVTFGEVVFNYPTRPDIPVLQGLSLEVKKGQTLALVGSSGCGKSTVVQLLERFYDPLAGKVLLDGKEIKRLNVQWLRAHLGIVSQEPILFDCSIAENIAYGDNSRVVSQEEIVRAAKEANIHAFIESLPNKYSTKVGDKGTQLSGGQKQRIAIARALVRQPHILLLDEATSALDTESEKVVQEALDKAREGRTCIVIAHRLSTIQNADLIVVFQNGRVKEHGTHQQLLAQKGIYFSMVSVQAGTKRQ
Procedure: To complement this approach and better understand whether these compounds may be substrates of such transporters, we next employed the calcein-AM-assay. This assay is particularly useful for assessing P-glycoprotein (P-gp), a major efflux transporter at the BBB that actively limits drug accumulation in the brain. To investigate potential interactions with P-gp, compounds 10, 11q-s were tested at concentrations of 1 μM, 10 μM, 50 μM and 100 μM, using the calcein-AM-assay in hMEC/D3 cells (Figure ). […] Therefore, these compounds are not expected to be P-gp substrates and may have favorable capacity to cross the BBB via passive diffusion, making them promising candidates for CNS drug development. […].
For all compounds tested, stock solutions were prepared in DMSO. Dilutions were then made with Krebs-Ringer buffer (KRB). […] Fluorescence was measured using a Tecan Infinite 200 Pro plate reader with λ excitation = 485 nm and λ emission = 535 nm. Each test compound was measured with n = 3, control and background were measured with n = 3. All fluorescence values were corrected by subtracting the background fluorescence. The increase in cellular fluorescence caused by a test compound was referred to the fluorescence of the control. […]

T1 sequence (P05067 672-713): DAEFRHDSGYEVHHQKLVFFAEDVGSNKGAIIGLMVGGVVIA

Row | SMILES | inhibition at 50 µM (Aβ42 aggregation) | Type of inhibition, BChE (BChE) | Type of inhibition, AChE (AChE) | Interaction with P-gp (intracellular calcein fluorescence) (P-glycoprotein (P-gp))
1 | COc1ccc2c(=O)c3cc4c(cc3oc2c1)-c1cc(Cl)ccc1OC4 [Compound 11r, 2-Chloro-11-methoxy-6H,8H-chromeno[3,4-b]xanthen-8-one] | 57 ± 5.7% | reversible competitive inhibition | reversible competitive inhibition | unlikely to be actively effluxed from the brain
2 | C#CCN(CC#C)c1ccccc1/C=C/c1cc(=O)c2ccccc2o1 [Compound 10, (E)-2-{2-[Di(prop-2-yn-1-yl)amino]styryl}-4H-chromen-4-one] | 36 ± 18.3% | reversible competitive inhibition | reversible competitive inhibition | clear inhibitory effect on P-gp activity
